Laboratory results published in patent US20150209379A1, “TREATMENT OF PROSTATE CANCER AND HEMATOLOGIC NEOPLASMS” (THOMAS JEFFERSON UNIVERSITY, priority 2012, published 2015).

Legend:
Type in all cases: cell-based
[1] = test system: K562 human chronic myeloid leukemia cells; assay: Cell viability, MTS assay, K562 chronic myeloid leukemia cells; settings: K562, 72 h, 3.1, 6.3, 12.5, 25 and 50 μM, vs control compound C5
Description: (§1) Exponentially growing K562 human chronic myeloid leukemia cells were treated with Compound 1, Compound 2 or the control compound C5 for 72 h at 3.1, 6.3. 12.5, 25 and 50 μM concentrations. The cell viability was assessed by MTS (3-(4,5-dimethylthiazolyl-2)-2,5-diphenyl-tetrazolium bromide) metabolic activity assay (CellTiter 96® AQueous Assay kit).
as §1, with “growing CWR22Rv1 prostate cancer cells,” for “growing”, “leukemia cells and imatinib-sensitive KCL22S and imatinib-resistant KCL22R” for “human”, “NBPP” for “Compound 1, Compound 2”

[2] = test system: KCL22R imatinib-resistant human chronic myeloid leukemia cells; assay: Cell viability, MTS assay, KCL22R imatinib-resistant chronic myeloid leukemia cells; settings: 72 h, 3.1, 6.3, 12.5, 25 and 50 μM, vs control compound C5
Description: as §1, with “KCL22R imatinib-resistant” for “K562”
as §1, with “growing CWR22Rv1 prostate cancer cells,” for “growing”, “leukemia cells and imatinib-sensitive KCL22S and imatinib-resistant KCL22R” for “human”, “NBPP” for “Compound 1, Compound 2”

[3] = test system: KCL22 human chronic myeloid leukemia cells; assay: Cell viability, MTS assay, KCL22 (imatinib-sensitive) chronic myeloid leukemia cells; settings: KCL22 (KCL22S), 72 h, 3.1, 6.3, 12.5, 25 and 50 μM, vs control compound C5
Description: as §1, with “KCL22” for “K562”
as §1, with “growing CWR22Rv1 prostate cancer cells,” for “growing”, “leukemia cells and imatinib-sensitive KCL22S and imatinib-resistant KCL22R” for “human”, “NBPP” for “Compound 1, Compound 2”

Stat5a = molecular target: T1, Stat5a (Homo sapiens, UniProt P42229); assay: Prolactin-induced Stat5a phosphorylation in CWR22Rv1 prostate cells (immunoprecipitation/Western blot); settings: CWR22Rv1, 12, 25, 50 and 100 μM for 2 h, then 10 nM Prl 30 minutes
T1 sequence (P42229 1-794): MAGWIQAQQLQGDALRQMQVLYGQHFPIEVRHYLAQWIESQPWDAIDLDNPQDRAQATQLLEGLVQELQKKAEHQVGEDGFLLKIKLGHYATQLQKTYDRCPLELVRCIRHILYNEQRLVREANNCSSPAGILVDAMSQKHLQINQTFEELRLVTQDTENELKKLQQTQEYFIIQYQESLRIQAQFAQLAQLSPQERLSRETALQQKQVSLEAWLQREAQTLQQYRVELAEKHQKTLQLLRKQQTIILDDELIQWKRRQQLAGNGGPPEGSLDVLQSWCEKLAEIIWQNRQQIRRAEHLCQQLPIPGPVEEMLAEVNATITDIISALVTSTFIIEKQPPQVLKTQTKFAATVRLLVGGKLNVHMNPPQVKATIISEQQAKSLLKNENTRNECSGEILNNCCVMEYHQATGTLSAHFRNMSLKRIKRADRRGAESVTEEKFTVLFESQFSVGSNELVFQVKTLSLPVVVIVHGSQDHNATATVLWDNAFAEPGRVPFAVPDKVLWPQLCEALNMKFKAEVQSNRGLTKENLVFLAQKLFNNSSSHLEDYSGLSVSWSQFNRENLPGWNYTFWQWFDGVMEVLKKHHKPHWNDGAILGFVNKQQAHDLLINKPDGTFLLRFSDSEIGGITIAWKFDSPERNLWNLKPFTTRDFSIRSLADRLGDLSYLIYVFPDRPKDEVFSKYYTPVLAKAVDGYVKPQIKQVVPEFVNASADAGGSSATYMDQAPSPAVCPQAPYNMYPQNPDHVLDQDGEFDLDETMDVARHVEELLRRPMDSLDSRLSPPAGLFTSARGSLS
Description: CWR22Rv1 cells were starved for 24 h in serum-free medium, treated with Compound 2 at 12, 25, 50 and 100 μM concentrations for 2 h, followed by stimulation with 10 nM Prl for 30 minutes. Stat5a was immunoprecipitated with anti-Stat5a pAb (4 gg/ml, Millipore, Billerica, Mass.). Immunoprecipitates of CWR22Rv1 cells were blotted with anti-phospho-Stat5ab mAb (1 μg/ml, Advantex BioReagents, Conroe, Tex.) or anti-Stat5a/b mAb (BD Biosciences, San Jose, Calif.). Whole cell lysates were immunoblotted with anti-actin pAb for loading control.
The protocol in more detail comprised the following. Cell pellets were solubilized in lysis buffer [10 mM Tris-HCl (pH 7.6), 5 mM EDTA, 50 mM sodium chloride, 30 mM sodium pyrophosphate, 50 mM sodium fluoride, 1 mM sodium orthovanadate, 1% Triton X-100, 1 mM phenylmethylsulfonyl fluoride, 5 μg/ml aprotinin, 1 μg/ml pepstatin A, and 2 μg/ml leupeptin], rotated end-over-end at 4° C. for 60 min, and insoluble material was pelleted at 12,000×g for 30 min at 4° C. The protein concentrations of clarified cell lysates were determined by simplified Bradford method (Bio-Rad Laboratories, Hercules, Calif.). Stat5a was immunoprecipitated from whole cell lysates with anti-Stat5a (4 μl/ml; Millipore, Billerica, Mass.) pAb. Antibody was captured by incubation for 60 min with protein A-Sepharose beads (Amersham Pharmacia Biotech, Piscataway, N.J.). […]

OC[C@H]1O[C@@H](n2cnc3c(N4CCc5ccccc5C4)ncnc32)[C@H](O)[C@@H]1O [Compound 1, (2R,3R,4S,5R)-2-(6-(3,4-Dihydroisoquinolin-2(1H)-yl)-9H-purin-9-yl)-5-(hydroxymethyl)tetrahydrofuran-3,4-diol]
number of viable cells [1]: decreased the number of viable leukemic cells compared to the control compound
number of viable cells [2]: decreased the number of viable leukemic cancer cells compared to the control compound
number of viable cells [3]: decreased the number of viable leukemic cancer cells compared to the control compound

OC[C@H]1O[C@@H](n2ccc3c(NCc4ccccc4)ncnc32)[C@H](O)[C@@H]1O [NBPP, N-(phenylmethyl)-7-β-D-ribofuranosyl-7H-pyrrolo[2,3-d]pyrimidin-4-amine]
number of viable cells [1]: decreased the number of viable K562 cells
number of viable cells [2]: decreased the number of viable KCL22R cells
number of viable cells [3]: decreased the number of viable KCL22S cells

OC[C@H]1O[C@@H](n2cnc3c(NNc4ccccc4)ncnc32)[C@H](O)[C@@H]1O [Compound 2, (2R,3S,4R,5R)-2-(hydroxymethyl)-5-(6-(2-phenylhydrazinyl)-9H-purin-9-yl)tetrahydrofuran-3,4-diol]
effect on Stat5a phosphorylation (Stat5a): inhibits Stat5a phosphorylation
number of viable cells [1]: decreased the number of viable leukemic cells compared to the control compound
number of viable cells [2]: decreased the number of viable leukemic cancer cells compared to the control compound
number of viable cells [3]: decreased the number of viable leukemic cancer cells compared to the control compound
